Measurements from PubChem BioAssay AID192 (DTP/NCI, 2004).
“And” between values parts separate entries of the source, which are not always exact repeats. Equal values may be shown once. Toxic doses and inconclusive results are not listed. Numbered stars: 1 amine (or outer) side, 2 acyl side, 3 side chain; on linkers, the order of the positions; unused ones are H or OH. Bridge positions count the residues as written; N and C are the ends. Square brackets hold non-standard residues; d marks the D form. Peptide text beside a SMILES is read from it. I, II: the chains in the order shown. ξ: configuration not given here. Actinocin(9to1) = Cc1c2oc3c(C)ccc(C(=O)[*:1])c3nc-2c(C(=O)[*:2])c(N)c1=O; ξγGlu = O=C(O)C(CCC(=O)[*:2])N[*:1]; NMeV = CN[CH](C(=O)O)C(C)C; Sar = CNCC(=O)O

System: BDF1 mice, B16 melanoma ip, median survival T/C
Assay: NCI In Vivo Anticancer Drug Screen. Data for tumor model B16 Melanoma (intraperitoneal) in B6D2F1 (BDF1) mice
Conditions: endpoint: median survival time, higher = longer survival
How it was run: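 Each result divides a survival or tumor-size measurement in the compound-treated group by the same measurement in the vehicle group.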

[1] = dose: 6.25 mg/kg/injection, schedule: Q01DX009 (ip), vehicle: Klucel (hydroxypropylcellulose) (HPC)
[2] = dose: 12.5 mg/kg/injection, schedule: Q01DX009 (ip), vehicle: Klucel (hydroxypropylcellulose) (HPC)
[3] = dose: 25.0 mg/kg/injection, schedule: Q01DX009 (ip), vehicle: saline with Tween-80
[4] = dose: 50.0 mg/kg/injection, schedule: Q01DX009 (ip), vehicle: Klucel (hydroxypropylcellulose) (HPC)
[5] = dose: 100.0 mg/kg/injection, schedule: Q01DX009 (ip), vehicle: Klucel (hydroxypropylcellulose) (HPC)
[6] = dose: 200.0 mg/kg/injection, schedule: Q01DX009 (ip), vehicle: Klucel (hydroxypropylcellulose) (HPC)
[7] = dose: 400.0 mg/kg/injection, schedule: Q01DX009 (ip), vehicle: Klucel (hydroxypropylcellulose) (HPC)
[8] = dose: 100.0 mg/kg/injection, schedule: Q01DX009 (ip), vehicle: saline
[9] = dose: 200.0 mg/kg/injection, schedule: Q01DX009 (ip), vehicle: saline
[10] = dose: 400.0 mg/kg/injection, schedule: Q01DX009 (ip), vehicle: saline
[11] = dose: 50.0 mg/kg/injection, schedule: Q01DX009 (ip), vehicle: saline with Tween-80
[12] = dose: 1.25 mg/kg/injection, schedule: Q01DX009 (ip), vehicle: saline

## CC(C)(C)C1CC(C(F)(F)F)(C(F)(F)F)OS(=O)O1 (stereo unspecified)
dose: 1.56 mg/kg/injection, schedule: Q04DX003 (ip), vehicle: saline
  T/C: 102 % of control
dose: 3.13 mg/kg/injection, schedule: Q04DX003 (ip), vehicle: saline
  T/C: 115 % of control
dose: 6.25 mg/kg/injection, schedule: Q04DX003 (ip), vehicle: saline
  T/C: 105 % of control

## CC(C)=CC(=O)OC1C2C(C)C(=O)OC2C(O)C(C)C2C=CC(=O)C21C (stereo unspecified)
[1]
  T/C: 95 % of control
dose: 6.25 mg/kg/injection, schedule: Q01DX009 (ip), vehicle: saline with Tween-80
  T/C: 91 % of control
[2]
  T/C: 97 % of control
dose: 12.5 mg/kg/injection, schedule: Q01DX009 (ip), vehicle: saline with Tween-80
  T/C: 94 % of control
dose: 25.0 mg/kg/injection, schedule: Q01DX009 (ip), vehicle: Klucel (hydroxypropylcellulose) (HPC)
  T/C: 93 % of control and 99 % of control
[3]
  T/C: 97 % of control

## CCCCCCCCCCCCCCCCCCNC(=O)CCl
[4]
  T/C: 93 % of control
[5]
  T/C: 93 % of control
[6]
  T/C: 86 % of control

## CCOC(=O)c1c(C)[nH]c2c(-c3ccccc3)c3cc(Cl)ccc3nc12
[4]
  T/C: 100 % of control
[5]
  T/C: 104 % of control
[6]
  T/C: 94 % of control
[7]
  T/C: 94 % of control

## C/C=C\C(C)=C/C(C)C(=O)CC(O)CC1CC(=O)NC(=O)C1 (stereo unspecified)
dose: 3.12 mg/kg/injection, schedule: Q01DX009 (ip), vehicle: DMSO
  T/C: 95 % of control
dose: 6.25 mg/kg/injection, schedule: Q01DX009 (ip), vehicle: DMSO
  T/C: 119 % of control
dose: 12.5 mg/kg/injection, schedule: Q01DX009 (ip), vehicle: DMSO
  T/C: 103 % of control
dose: 25.0 mg/kg/injection, schedule: Q01DX009 (ip), vehicle: DMSO
  T/C: 96 % of control

## Cc1c2oc3c(C)ccc(C(=O)NC4C(=O)NC(C(C)C)C(=O)N5CCCC5C(=O)N(C)CC(=O)N(C)C(C(C)C)C(=O)OC4C)c3nc-2c(C(=O)NC2C(=O)NC(C(C)C)C(=O)N3CCCC3C(=O)N(C)CC(=O)N(C)C(C(C)C)C(=O)OC2C)c(N)c1=O (stereo unspecified) (I: TVP[Sar][NMeV] / II: TVP[Sar][NMeV]; ester I:1-I:C, II:1-II:C; linker I:N-II:N via Actinocin(9to1); configuration not given here)
dose: 0.06 mg/kg/injection, schedule: Q01DX009 (ip), vehicle: saline
  T/C: 165 % of control
dose: 0.12 mg/kg/injection, schedule: Q01DX009 (ip), vehicle: saline
  T/C: 177 % of control and 180 % of control

## CC(=O)NCCCCCCNC(C)=O
[8]
  T/C: 101 % of control
[9]
  T/C: 105 % of control
[10]
  T/C: 87 % of control
dose: 800.0 mg/kg/injection, schedule: Q01DX009 (ip), vehicle: saline
  T/C: 105 % of control

## Cc1cccc(N2CCN(CCC#N)CC2)c1
[3]
  T/C: 102 % of control
[11]
  T/C: 108 % of control

## COc1cccc2c1C(=O)c1c(O)c3c(c(O)c1C2=O)C[C@@](O)(/C(C)=N/NC(=O)c1ccc(S(N)(=O)=O)cc1)C[C@@H]3OC1CC(N)C(O)C(C)O1 (stereo partly specified)
dose: 3.13 mg/kg/injection, schedule: Q01DX009 (ip), vehicle: water
  T/C: 190 % of control
dose: 6.25 mg/kg/injection, schedule: Q01DX009 (ip), vehicle: water
  T/C: 258 % of control
dose: 12.5 mg/kg/injection, schedule: Q01DX009 (ip), vehicle: water
  T/C: 259 % of control

## C/C=C(\C)C(=O)OC1C(C)=C2C(C1OC(=O)CCCC)C(C)(OC(C)=O)CC(OC(=O)CCCC)C1(O)C2OC(=O)C1(C)O (stereo unspecified)
dose: 0.37 mg/kg/injection, schedule: Q01DX009 (ip), vehicle: Klucel (hydroxypropylcellulose) (HPC)
  T/C: 90 % of control
dose: 0.75 mg/kg/injection, schedule: Q01DX009 (ip), vehicle: Klucel (hydroxypropylcellulose) (HPC)
  T/C: 101 % of control
dose: 1.5 mg/kg/injection, schedule: Q01DX009 (ip), vehicle: Klucel (hydroxypropylcellulose) (HPC)
  T/C: 106 % of control
dose: 3.0 mg/kg/injection, schedule: Q01DX009 (ip), vehicle: Klucel (hydroxypropylcellulose) (HPC)
  T/C: 89 % of control

## COc1ccc(Cl)cc1NC(=O)c1ccccc1Cl
[5]
  T/C: 102 % of control
[6]
  T/C: 108 % of control
[7]
  T/C: 100 % of control

## C(/C=C/c1ccccc1)=Nc1ccc2c(c1)Cc1ccccc1-2
[5]
  T/C: 96 % of control
[6]
  T/C: 90 % of control
[7]
  T/C: 87 % of control

## CN1CCN(C2=C(Cl)C(=O)c3ccccc3C2=O)CC1
[12]
  T/C: 95 % of control
dose: 2.5 mg/kg/injection, schedule: Q01DX009 (ip), vehicle: saline
  T/C: 88 % of control

## O=C(c1ccncc1)c1c(Cc2ccccc2)ccc2ccccc12
[11]
  T/C: 100 % of control
dose: 100.0 mg/kg/injection, schedule: Q01DX009 (ip), vehicle: saline with Tween-80
  T/C: 99 % of control
dose: 200.0 mg/kg/injection, schedule: Q01DX009 (ip), vehicle: saline with Tween-80
  T/C: 95 % of control
dose: 400.0 mg/kg/injection, schedule: Q01DX009 (ip), vehicle: saline with Tween-80
  T/C: 95 % of control

## NC(CCC(=O)NCC(=O)NCC(=O)O)C(=O)O (stereo not drawn) (ξγGlu-Gly-Gly-OH)
dose: 50.0 mg/kg/injection, schedule: Q01DX009 (ip), vehicle: saline
  T/C: 106 % of control
[8]
  T/C: 97 % of control
[9]
  T/C: 102 % of control
[10]
  T/C: 91 % of control

## COc1ccccc1NC(=O)Nc1ccc(F)cc1
dose: 100.0 mg/kg/injection, schedule: Q04DX003 (ip), vehicle: Klucel (hydroxypropylcellulose) (HPC)
  T/C: 95 % of control
dose: 200.0 mg/kg/injection, schedule: Q04DX003 (ip), vehicle: Klucel (hydroxypropylcellulose) (HPC)
  T/C: 95 % of control
dose: 400.0 mg/kg/injection, schedule: Q04DX003 (ip), vehicle: Klucel (hydroxypropylcellulose) (HPC)
  T/C: 89 % of control

## CC(=O)NC1=C(N2CC2C)C(=O)C(NC(C)=O)=C(N2CC2C)C1=O (stereo unspecified)
dose: 0.62 mg/kg/injection, schedule: Q01DX009 (ip), vehicle: saline
  T/C: 89 % of control
[12]
  T/C: 105 % of control

## CCOC(=O)Nc1ccc([N+](=O)[O-])cc1
[5]
  T/C: 113 % of control
[6]
  T/C: 103 % of control

## Ic1ncnc2c1ncn2C1CCCO1 (stereo unspecified)
[5]
  T/C: 118 % of control
[6]
  T/C: 104 % of control

## CC(Cc1ccccc1)NC(=O)CCNNC(=O)c1ccncc1 (stereo unspecified)
dose: 0.39 mg/kg/injection, schedule: Q01DX009 (ip), vehicle: Klucel (hydroxypropylcellulose) (HPC)
  T/C: 95 % of control
dose: 0.78 mg/kg/injection, schedule: Q01DX009 (ip), vehicle: Klucel (hydroxypropylcellulose) (HPC)
  T/C: 87 % of control
dose: 1.56 mg/kg/injection, schedule: Q01DX009 (ip), vehicle: Klucel (hydroxypropylcellulose) (HPC)
  T/C: 90 % of control
dose: 3.12 mg/kg/injection, schedule: Q01DX009 (ip), vehicle: Klucel (hydroxypropylcellulose) (HPC)
  T/C: 95 % of control
[1]
  T/C: 89 % of control
[2]
  T/C: 91 % of control

## Cc1c(N)nc([C@H](CC(N)=O)NC[C@H](N)C(N)=O)nc1C(=O)N[C@H](C(=O)N[C@H](C)[C@@H](O)[C@H](C)C(=O)N[C@H](C(=O)NCCc1nc(-c2nc(C(=O)NCCC[S+](C)C)cs2)cs1)[C@@H](C)O)C(OC1OC(CO)C(O)C(O)C1OC1OC(CO)C(O)C(OC(N)=O)C1O)c1cnc[nH]1 (stereo partly specified)
dose: 1.0 mg/kg/injection, schedule: Q01DX009 (ip), vehicle: clinical formulation
  T/C: 114 % of control
dose: 2.0 mg/kg/injection, schedule: Q01DX009 (ip), vehicle: clinical formulation
  T/C: 121 % of control
dose: 3.9 mg/kg/injection, schedule: Q01DX009 (ip), vehicle: saline
  T/C: 102 % of control
dose: 4.0 mg/kg/injection, schedule: Q01DX009 (ip), vehicle: clinical formulation
  T/C: 120 % of control
dose: 7.8 mg/kg/injection, schedule: Q01DX009 (ip), vehicle: saline
  T/C: 102 % of control
dose: 8.0 mg/kg/injection, schedule: Q01DX009 (ip), vehicle: clinical formulation
  T/C: 124 % of control
dose: 15.6 mg/kg/injection, schedule: Q01DX009 (ip), vehicle: saline
  T/C: 102 % of control
dose: 16.0 mg/kg/injection, schedule: Q01DX009 (ip), vehicle: clinical formulation
  T/C: 123 % of control
dose: 31.3 mg/kg/injection, schedule: Q01DX009 (ip), vehicle: saline
  T/C: 109 % of control

## CC(=O)[C@@]1(O)CC[C@H]2[C@@H]3C[C@H](C)C4=CC(=O)C=C[C@]4(C)[C@@]3(F)[C@@H](O)C[C@@]21C
dose: 25.0 mg/kg/injection, schedule: Q01DX009 (sc), vehicle: steriod suspending solution
  T/C: 102 % of control
dose: 50.0 mg/kg/injection, schedule: Q01DX009 (sc), vehicle: steriod suspending solution
  T/C: 107 % of control

## C=CCC(CC)C(=O)Cl (stereo unspecified)
dose: 12.5 mg/kg/injection, schedule: Q04DX003 (ip), vehicle: other
  T/C: 117 % of control
dose: 25.0 mg/kg/injection, schedule: Q04DX003 (ip), vehicle: other
  T/C: 114 % of control
dose: 50.0 mg/kg/injection, schedule: Q04DX003 (ip), vehicle: other
  T/C: 96 % of control
dose: 100.0 mg/kg/injection, schedule: Q04DX003 (ip), vehicle: other
  T/C: 88 % of control
